Reference: ChEMBL document CHEMBL1909046, “DrugMatrix in vitro pharmacology data”

Columns and labels:
[1] = target: T1, Alpha-1A adrenergic receptor (Rattus norvegicus, UniProt P43140); experiment: DRUGMATRIX: Alpha-1A adrenergic receptor radioligand binding (ligand: prazosin); format: cell membranes, Wistar, Submaxillary gland, Membrane; settings: Not Active = under 50% inhibition at 10 µM
T1 sequence (P43140 whole entry): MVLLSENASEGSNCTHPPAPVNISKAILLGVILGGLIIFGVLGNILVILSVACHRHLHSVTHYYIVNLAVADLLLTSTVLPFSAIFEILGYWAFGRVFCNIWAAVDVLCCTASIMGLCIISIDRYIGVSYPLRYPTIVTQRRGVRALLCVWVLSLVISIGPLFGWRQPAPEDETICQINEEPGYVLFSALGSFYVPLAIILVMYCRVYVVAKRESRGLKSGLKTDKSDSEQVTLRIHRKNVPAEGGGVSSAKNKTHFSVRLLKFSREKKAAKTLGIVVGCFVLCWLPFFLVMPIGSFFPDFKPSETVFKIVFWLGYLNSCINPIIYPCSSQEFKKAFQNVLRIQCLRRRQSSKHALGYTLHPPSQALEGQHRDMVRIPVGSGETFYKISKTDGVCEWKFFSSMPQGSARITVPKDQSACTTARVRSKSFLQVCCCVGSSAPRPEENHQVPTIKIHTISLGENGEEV

[2] = target: T2, Vasoactive intestinal polypeptide receptor 1 (Homo sapiens, UniProt P32241); format: cell membranes, Membrane; settings: ht-29; further: in other assays of this panel Not Active means under 50% inhibition at 10 µM
T2 sequence (P32241 whole entry): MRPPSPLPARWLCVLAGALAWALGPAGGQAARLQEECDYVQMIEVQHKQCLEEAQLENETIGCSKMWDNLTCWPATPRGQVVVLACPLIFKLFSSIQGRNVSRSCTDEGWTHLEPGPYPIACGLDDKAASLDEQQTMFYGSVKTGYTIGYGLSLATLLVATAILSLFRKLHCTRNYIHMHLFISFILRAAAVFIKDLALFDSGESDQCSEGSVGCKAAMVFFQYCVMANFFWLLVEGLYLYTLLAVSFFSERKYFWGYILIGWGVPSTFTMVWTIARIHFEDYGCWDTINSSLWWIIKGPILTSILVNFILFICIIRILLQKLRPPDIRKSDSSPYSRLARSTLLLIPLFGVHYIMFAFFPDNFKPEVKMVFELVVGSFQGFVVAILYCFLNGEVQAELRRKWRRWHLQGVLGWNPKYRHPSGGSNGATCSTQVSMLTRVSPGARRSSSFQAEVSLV

[3] = target: Prostaglandin G/H synthase 1 (Homo sapiens, UniProt P23219); experiment: biochemical; format: tissue-based, Platelet; settings: platelet;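 further: inhibition of COX-1 enzyme activity, with arachidonic acid supplied as substrate; in other assays of this panel Not Active means under 50% inhibition at 10 µM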
Sequence of Prostaglandin G/H synthase 1 (P23219 whole entry): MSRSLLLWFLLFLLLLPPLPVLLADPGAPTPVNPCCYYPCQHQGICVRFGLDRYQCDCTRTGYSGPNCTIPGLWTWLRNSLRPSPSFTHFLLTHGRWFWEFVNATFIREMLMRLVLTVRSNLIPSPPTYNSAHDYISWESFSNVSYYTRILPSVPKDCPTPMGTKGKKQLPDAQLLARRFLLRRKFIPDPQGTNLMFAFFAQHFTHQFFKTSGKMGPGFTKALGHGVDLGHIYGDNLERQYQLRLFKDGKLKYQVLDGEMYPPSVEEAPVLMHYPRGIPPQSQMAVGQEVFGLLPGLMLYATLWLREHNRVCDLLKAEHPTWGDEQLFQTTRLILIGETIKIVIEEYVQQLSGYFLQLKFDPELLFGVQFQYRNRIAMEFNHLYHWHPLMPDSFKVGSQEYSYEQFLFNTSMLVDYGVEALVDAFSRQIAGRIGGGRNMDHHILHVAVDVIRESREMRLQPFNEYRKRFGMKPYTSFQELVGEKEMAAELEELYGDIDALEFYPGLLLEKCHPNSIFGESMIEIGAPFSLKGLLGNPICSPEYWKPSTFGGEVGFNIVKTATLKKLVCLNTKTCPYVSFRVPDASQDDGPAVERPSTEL

[4] = target: Nitric oxide synthase 1 (Rattus norvegicus, UniProt P29476); format: tissue-based, Cerebellum; further: in other assays of this panel Not Active means under 50% inhibition at 10 µM
Sequence of Nitric oxide synthase 1 (P29476 whole entry): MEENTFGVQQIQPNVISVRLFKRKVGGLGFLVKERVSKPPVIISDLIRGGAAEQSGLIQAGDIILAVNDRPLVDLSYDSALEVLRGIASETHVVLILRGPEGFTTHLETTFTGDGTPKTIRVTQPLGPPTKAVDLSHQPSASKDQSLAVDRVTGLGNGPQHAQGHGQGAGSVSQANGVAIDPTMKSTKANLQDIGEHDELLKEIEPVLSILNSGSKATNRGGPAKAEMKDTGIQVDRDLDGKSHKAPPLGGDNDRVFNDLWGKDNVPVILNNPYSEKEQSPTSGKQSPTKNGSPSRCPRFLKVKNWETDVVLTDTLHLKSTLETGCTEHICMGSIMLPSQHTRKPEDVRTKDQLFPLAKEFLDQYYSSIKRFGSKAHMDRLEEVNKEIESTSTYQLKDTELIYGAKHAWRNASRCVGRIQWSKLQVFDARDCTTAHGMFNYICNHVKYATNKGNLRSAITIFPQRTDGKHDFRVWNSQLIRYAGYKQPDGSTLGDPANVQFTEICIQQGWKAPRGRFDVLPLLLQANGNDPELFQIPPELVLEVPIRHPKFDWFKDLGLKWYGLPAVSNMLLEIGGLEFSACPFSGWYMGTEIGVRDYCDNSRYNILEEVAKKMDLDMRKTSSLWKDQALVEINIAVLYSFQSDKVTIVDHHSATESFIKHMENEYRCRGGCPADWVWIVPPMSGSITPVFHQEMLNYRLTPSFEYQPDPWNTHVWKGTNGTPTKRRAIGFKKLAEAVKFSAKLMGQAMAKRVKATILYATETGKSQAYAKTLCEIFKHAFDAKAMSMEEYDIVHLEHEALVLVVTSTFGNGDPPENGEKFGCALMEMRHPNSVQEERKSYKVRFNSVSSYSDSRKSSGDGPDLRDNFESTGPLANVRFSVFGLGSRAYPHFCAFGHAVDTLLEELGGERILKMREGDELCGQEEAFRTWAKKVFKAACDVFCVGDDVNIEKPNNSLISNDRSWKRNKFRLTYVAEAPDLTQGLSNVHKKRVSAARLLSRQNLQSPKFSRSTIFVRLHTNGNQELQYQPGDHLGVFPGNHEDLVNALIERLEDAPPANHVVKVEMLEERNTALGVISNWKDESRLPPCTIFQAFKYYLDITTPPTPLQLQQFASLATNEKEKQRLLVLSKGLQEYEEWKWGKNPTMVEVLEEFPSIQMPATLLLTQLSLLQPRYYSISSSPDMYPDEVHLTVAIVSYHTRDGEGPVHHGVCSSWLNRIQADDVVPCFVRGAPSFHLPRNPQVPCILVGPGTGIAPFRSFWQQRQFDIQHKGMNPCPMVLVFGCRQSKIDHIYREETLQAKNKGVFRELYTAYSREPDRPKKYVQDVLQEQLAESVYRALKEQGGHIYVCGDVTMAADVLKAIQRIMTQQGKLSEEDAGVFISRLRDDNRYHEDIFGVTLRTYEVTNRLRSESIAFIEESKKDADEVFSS

[5] = target: T3, Caspase-1 (Homo sapiens, UniProt P29466); parameters: species or system Escherichia coli;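 further: Caspase-1 enzyme inhibition assay with a peptide substrate; in other assays of this panel Not Active means under 50% inhibition at 10 µM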
T3 sequence (P29466 whole entry): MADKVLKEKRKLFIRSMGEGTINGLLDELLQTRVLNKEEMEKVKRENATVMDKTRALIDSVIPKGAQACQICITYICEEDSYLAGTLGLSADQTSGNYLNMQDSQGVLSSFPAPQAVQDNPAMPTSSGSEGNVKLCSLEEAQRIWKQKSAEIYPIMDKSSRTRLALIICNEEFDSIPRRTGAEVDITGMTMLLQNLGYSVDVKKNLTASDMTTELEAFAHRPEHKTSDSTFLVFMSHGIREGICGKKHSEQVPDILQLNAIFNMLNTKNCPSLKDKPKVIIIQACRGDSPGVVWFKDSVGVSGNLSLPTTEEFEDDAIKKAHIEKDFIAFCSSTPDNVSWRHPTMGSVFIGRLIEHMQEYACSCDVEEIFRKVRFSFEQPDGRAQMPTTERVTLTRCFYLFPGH

[6] = target: Adenosine receptor A2a (Homo sapiens, UniProt P29274); experiment: DRUGMATRIX: Adenosine A2A radioligand binding (ligand: […]); format: cell membranes, HEK293, Membrane; settings: hek293; Not Active = under 50% inhibition at 10 µM
Sequence of Adenosine receptor A2a (P29274 whole entry): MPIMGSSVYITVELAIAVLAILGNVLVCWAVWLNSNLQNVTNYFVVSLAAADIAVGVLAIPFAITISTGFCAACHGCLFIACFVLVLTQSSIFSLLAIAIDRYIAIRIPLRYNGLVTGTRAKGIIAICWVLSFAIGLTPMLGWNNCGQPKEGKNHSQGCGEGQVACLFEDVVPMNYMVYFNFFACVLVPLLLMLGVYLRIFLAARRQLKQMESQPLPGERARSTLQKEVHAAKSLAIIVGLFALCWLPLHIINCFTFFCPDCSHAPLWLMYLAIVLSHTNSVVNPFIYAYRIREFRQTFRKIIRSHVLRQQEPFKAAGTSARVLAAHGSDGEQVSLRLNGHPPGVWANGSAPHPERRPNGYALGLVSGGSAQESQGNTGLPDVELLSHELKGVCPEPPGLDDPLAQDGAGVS

[7] = target: Cytochrome P450 2E1 (Homo sapiens, UniProt P05181); settings: bti-tn-5b1-4; further: in other assays of this panel Not Active means under 50% inhibition at 10 µM
Sequence of Cytochrome P450 2E1 (P05181 whole entry): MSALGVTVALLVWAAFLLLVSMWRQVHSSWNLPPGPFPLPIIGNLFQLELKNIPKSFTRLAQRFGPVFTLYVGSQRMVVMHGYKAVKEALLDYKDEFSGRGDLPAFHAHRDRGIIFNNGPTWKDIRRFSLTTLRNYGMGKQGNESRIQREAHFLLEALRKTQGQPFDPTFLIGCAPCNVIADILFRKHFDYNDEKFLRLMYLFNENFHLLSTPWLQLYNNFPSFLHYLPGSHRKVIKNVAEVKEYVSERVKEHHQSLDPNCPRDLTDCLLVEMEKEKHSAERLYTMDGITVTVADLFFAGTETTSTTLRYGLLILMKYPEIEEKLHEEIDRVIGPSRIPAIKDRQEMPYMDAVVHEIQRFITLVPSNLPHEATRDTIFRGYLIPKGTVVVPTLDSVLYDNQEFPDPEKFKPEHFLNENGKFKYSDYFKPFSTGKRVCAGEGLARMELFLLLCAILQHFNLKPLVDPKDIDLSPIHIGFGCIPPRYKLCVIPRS

Row | Compound | IC50 [1] | IC50 [2] | IC50 [3] | IC50 [4] | IC50 [5] | IC50 [6] | IC50 [7] | Ki [7] | IC50 ([1]; read-out: IC50) [nM] | Ki ([1]; read-out: Ki) [nM]
1 | O=C(O)P(=O)(O)O [FOSCARNET] | Not Active | Not Active | Not Active | Not Active | Not Active | Not Active | Not Active | Not Active |  | 
2 | C[C@H]1[C@H](NC(=O)/C(=N\OC(C)(C)C(=O)O)c2csc(N)n2)C(=O)N1S(=O)(=O)O [AZTREONAM] | Not Active | Not Active | Not Active | Not Active | Not Active | Not Active | Not Active | Not Active |  | 
3 | CN1C[C@@H]2C[C@H]1CN2c1cc2c(cc1F)c(=O)c(C(=O)O)cn2C1CC1 [DANOFLOXACIN] | Not Active | Not Active | Not Active | Not Active | Not Active | Not Active | Not Active | Not Active |  | 
4 | CC(=O)OCC(=O)[C@@]12OC(C)(C)O[C@@H]1C[C@H]1[C@@H]3C[C@H](F)C4=CC(=O)C=C[C@]4(C)[C@@]3(F)[C@@H](O)C[C@@]12C [FLUOCINONIDE] | Not Active | Not Active | Not Active | Not Active | Not Active | Not Active |  |  |  | 
5 | CN1CCCC(CN2c3ccccc3Sc3ccccc32)C1 (stereo not drawn) [MEPAZINE] |  | Not Active | Not Active | Not Active | Not Active | Not Active | Not Active | Not Active | 144 | 58
6 | NCCCNCCSP(=O)(O)O [AMIFOSTINE] | Not Active | Not Active | Not Active | Not Active | Not Active | Not Active | Not Active | Not Active |  | 
7 | CC[C@]1(O)C[C@@H]2CN(CCc3c([nH]c4ccccc34)[C@@](C(=O)OC)(c3cc4c(cc3OC)N(C)[C@H]3[C@@](O)(C(N)=O)[C@H](O)[C@]5(CC)C=CCN6CC[C@]43[C@@H]65)C2)C1 [VINDESINE] | Not Active | Not Active | Not Active | Not Active | Not Active | Not Active | Not Active | Not Active |  | 
8 | C[C@@H]1C/C=C/C=C/C=C/C=C/[C@H](O[C@@H]2O[C@H](C)[C@@H](O)[C@H](N)[C@@H]2O)C[C@@H]2O[C@](O)(C[C@@H](O)C[C@H]3O[C@@H]3/C=C/C(=O)O1)C[C@H](O)[C@H]2C(=O)O [NATAMYCIN] | Not Active | Not Active | Not Active | Not Active | Not Active | Not Active |  |  |  | 
9 | ClC(Cl)(Cl)Cl [CARBON TETRACHLORIDE] | Not Active | Not Active | Not Active | Not Active | Not Active | Not Active |  |  |  | 
10 | NC12CC3CC(CC(C3)C1)C2 [AMANTADINE] | Not Active | Not Active | Not Active | Not Active | Not Active | Not Active |  |  |  | 
11 | CC(=O)Oc1ccccc1C(=O)O [ASPIRIN] | Not Active | Not Active |  | Not Active | Not Active | Not Active | Not Active | Not Active |  | 
12 | N[C@@H](Cn1ccc(=O)c(O)c1)C(=O)O [L-MIMOSINE] | Not Active | Not Active | Not Active | Not Active | Not Active | Not Active |  |  |  | 
13 | CS(=O)(=O)Nc1ccc([N+](=O)[O-])cc1Oc1ccccc1 [NIMESULIDE] | Not Active | Not Active |  | Not Active | Not Active | Not Active | Not Active | Not Active |  | 
